pIC50: −log10 of the molar value. Where a name gives a salt, the structure may show the parent alone.
Each molecule was assayed against T1, methionine aminopeptidase-2 (MetAP2) (Homo sapiens, UniProt P50579) (assay: Inhibition of MetAP2 enzyme activity (96-well, Met-Ala-Ser substrate, L-amino acid oxidase/peroxidase/ortho-dianisidine, 450 nm)). Conditions: IC50, recombinant MetAP2 4 μg/mL, pH 7.4, Met-Ala-Ser substrate, 20 minutes.
T1 construct: made in house; host or cells: insect cells, baculovirus system (secreted, purified from culture supernatant)
T1 sequence (P50579 whole entry): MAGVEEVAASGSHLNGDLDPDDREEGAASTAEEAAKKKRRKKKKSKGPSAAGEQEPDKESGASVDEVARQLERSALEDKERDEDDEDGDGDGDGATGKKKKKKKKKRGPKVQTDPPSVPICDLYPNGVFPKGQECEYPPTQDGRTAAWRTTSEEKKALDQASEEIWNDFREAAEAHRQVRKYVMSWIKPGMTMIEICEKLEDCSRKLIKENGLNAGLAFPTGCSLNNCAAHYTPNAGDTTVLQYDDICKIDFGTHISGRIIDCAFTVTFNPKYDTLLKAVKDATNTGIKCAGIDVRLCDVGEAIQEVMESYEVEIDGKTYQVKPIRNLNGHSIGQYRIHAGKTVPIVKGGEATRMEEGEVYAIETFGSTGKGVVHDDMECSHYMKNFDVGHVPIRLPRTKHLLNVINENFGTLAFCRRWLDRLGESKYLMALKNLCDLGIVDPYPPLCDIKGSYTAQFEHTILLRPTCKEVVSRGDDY
Format: biochemical
Description: The ability of compounds of the present invention to inhibit methionine aminopeptidase 2 was evaluated using the following assay.
Assays for MetAP2 enzyme activity and MetAP2 inhibition were performed in 96-well microtiter plates. Compounds to be tested for MetAP2 inhibition were dissolved in dimethyl-sulfoxide at 10 mM and diluted ten-fold in assay buffer ([…], pH 7.4, 100 mM NaCl). Ten microliters of solution of each compound to be tested for inhibition were introduced into each cell of the plate, with each compound being tested in triplicate.
The absorbence at 450 nanometers was measured every 20 seconds over a period of twenty minutes using an automaic plate reader (Molecular Devices, CA, USA). The Vmax in mOD/min, calculated for each well was used to represent MetAP2 activity. The IC50 for each inhibitor was obtained by plotting the remaining MetAP2 activity versus inhibitor concentration.

Q: How did the pIC50 turn out when N[C@H](CC1CCCCC1)C(O)C(=O)NCCCN1CCCC1=O (mixture of isomers) [Example 102, (2RS,3R)-3-Amino-4-cyclohexyl-2-hydroxy-N-(3-(2-oxo-1-pyrrolidinyl)propyl)butanamide Hydrochloride] was run?
A: 4.89

Q: N[C@H](CC1CCCCC1)C(O)C(=O)Nc1ccccc1 (mixture of isomers) [Example 107, (2RS,3R)-3-Amino-4-cyclohexyl-2-hydroxy-N-phenylbutanamide Hydrochloride] was tested. Which pIC50 did it give?
A: 5.92

Q: With N[C@H](CC1CCCCC1)C(O)C(=O)NCCc1ccccc1Cl (mixture of isomers) [Example 108, (2RS,3R)-3-Amino-N-(2-chlorophenethyl)-4-cyclohexyl-2-hydroxybutanamide Hydrochloride] as the molecule, how does the pIC50 read?
A: 6.20

Q: With N[C@H](CC1CCCCC1)C(O)C(=O)NCCCc1ccccc1 (mixture of isomers) [Example 109, (2RS,3R)-3-Amino-4-cyclohexyl-2-hydroxy-N-(3-phenylpropyl)butanamide Hydrochloride] as the molecule, how does the pIC50 read?
A: 5.77

Q: How did the pIC50 turn out when CC(C)(C)C1CCC(NC(=O)C(O)[C@H](N)CC2CCCCC2)CC1 (mixture of isomers) [Example 111, (2RS,3R)-3-Amino-N-(4-(tert-butyl)cyclohexyl)-4-cyclohexyl-2-hydroxybutanamide Hydrochloride] was run?
A: 5.09

Q: With N[C@H](CC1CCCCC1)C(O)C(=O)Nc1cc(Cl)cc(Cl)c1 (mixture of isomers) [Example 112, (2RS,3R)-3-Amino-4-cyclohexyl-N-(3,5-dichlorophenyl)-2-hydroxybutanamide Hydrochloride] as the molecule, how does the pIC50 read?
A: 5.82

Q: With CC(C)(C)OC(=O)CNC(=O)C(O)[C@H](N)CC1CCCCC1 (mixture of isomers) [Example 126, tert-butyl (2RS,3R)-2-((3-amino-4-cyclohexyl-2-hydroxybutanoyl)amino)acetate hydrochloride] as the molecule, how does the pIC50 read?
A: 4.89

Q: COC(=O)C(Cc1ccccc1)NC(=O)C(O)[C@H](N)CC1CCCCC1 (mixture of isomers) [Example 127, methyl (2RS,3R)-2-((3-amino-4-cyclohexyl-2-hydroxybutanoyl)amino)-3-phenylpropanoate hydrochloride] was tested. Which pIC50 did it give?
A: 4.55

Q: How did the pIC50 turn out when C[C@H](NC(=O)C(O)[C@H](N)CC1CCCCC1)c1cccc2ccccc12 (mixture of isomers) [Example 133, (2RS,3R)-3-amino-4-cyclohexyl-2-hydroxy-N-((1S)-1-(1-naphthyl)ethyl)butanamide hydrochloride] was run?
A: 6.57

Q: With C[C@@H](NC(=O)C(O)[C@H](N)CC1CCCCC1)c1cccc2ccccc12 (mixture of isomers) [Example 134, (2RS,3R)-3-amino-4-cyclohexyl-2-hydroxy-N-((1R)-1-(1-naphthyl)ethyl)butanamide hydrochloride] as the molecule, how does the pIC50 read?
A: 5.51

Q: N[C@H](CC1CCCCC1)C(O)C(=O)NC(CO)CO (mixture of isomers) [Example 136, (2RS,3R)-3-amino-4-cyclohexyl-2-hydroxy-N-(2-hydroxy-1-(hydroxymethyl)ethyl)butanamide trifluoroacetate] was tested. Which pIC50 did it give?
A: 5.74

Q: How did the pIC50 turn out when N[C@H](CC1CCCCC1)C(O)C(=O)NCCc1ccc(F)cc1 (mixture of isomers) [Example 142, (2RS,3R)-3-amino-4-cyclohexyl-N-(4-fluorophenethyl)-2-hydroxybutanamide hydrochloride] was run?
A: 6.40

Q: Cc1ccc(NC(=O)C(O)[C@H](N)CC2CCCCC2)cc1 (mixture of isomers) [Example 143, (2RS,3R)-3-amino-4-cyclohexyl-2-hydroxy-N-(4-methylphenyl)butanamide] was tested. Which pIC50 did it give?
A: 6.06

Q: How did the pIC50 turn out when N[C@H](CC1CCCCC1)C(O)C(=O)Nc1ccc(F)cc1 (mixture of isomers) [Example 144, (2RS,3R)-3-amino-4-cyclohexyl-N-(4-fluorophenyl)-2-hydroxybutanamide] was run?
A: 5.68

Q: COc1ccc(NC(=O)C(O)[C@H](N)CC2CCCCC2)cc1 (mixture of isomers) [Example 145, (2RS,3R)-3-amino-4-cyclohexyl-2-hydroxy-N-(4-methoxyphenyl)butanamide] was tested. Which pIC50 did it give?
A: 5.92

Q: How did the pIC50 turn out when COc1ccccc1NC(=O)C(O)[C@H](N)CC1CCCCC1 (mixture of isomers) [Example 146, (2RS,3R)-3-amino-4-cyclohexyl-2-hydroxy-N-(2-methoxyphenyl)butanamide] was run?
A: 5.82

Q: How did the pIC50 turn out when N[C@H](CC1CCCCC1)C(O)C(=O)Nc1ccc(Cl)cc1 (mixture of isomers) [Example 147, (2RS,3R)-3-amino-N-(4-chlorophenyl)-4-cyclohexyl-2-hydroxybutanamide] was run?
A: 6.00

Q: N[C@H](CC1CCCCC1)C(O)C(=O)Nc1cccc(Cl)c1 (mixture of isomers) [Example 148, (2RS,3R)-3-amino-N-(3-chlorophenyl)-4-cyclohexyl-2-hydroxybutanamide] was tested. Which pIC50 did it give?
A: 6.28

Q: How did the pIC50 turn out when N[C@H](CC1CCCCC1)C(O)C(=O)Nc1ccccc1Cl (mixture of isomers) [Example 149, (2RS,3R)-3-amino-N-(2-chlorophenyl)-4-cyclohexyl-2-hydroxybutanamide] was run?
A: 6.03

Q: With N[C@H](CC1CCCCC1)C(O)C(=O)Nc1cccc(C(F)(F)F)c1 (mixture of isomers) [Example 151, (2RS,3R)-3-amino-4-cyclohexyl-2-hydroxy-N-(3-(trifluoromethyl)phenyl)butanamide] as the molecule, how does the pIC50 read?
A: 6.37

Q: N[C@H](CC1CCCCC1)C(O)C(=O)Nc1ccc(C(F)(F)F)cc1 (mixture of isomers) [Example 152, (2RS,3R)-3-amino-4-cyclohexyl-2-hydroxy-N-(4-(trifluoromethyl)phenyl)butanamide] was tested. Which pIC50 did it give?
A: 5.62

Q: With N[C@H](CC1CCCCC1)C(O)C(=O)Nc1ccc(Cl)c(Cl)c1 (mixture of isomers) [Example 153, (2RS,3R)-3-amino-4-cyclohexyl-N-(3,4-dichlorophenyl)-2-hydroxybutanamide] as the molecule, how does the pIC50 read?
A: 6.43

Q: N[C@H](CC1CCCCC1)C(O)C(=O)Nc1ccc(Cl)cc1Cl (mixture of isomers) [Example 154, (2RS,3R)-3-amino-4-cyclohexyl-N-(2,4-dichlorophenyl)-2-hydroxybutanamide] was tested. Which pIC50 did it give?
A: 5.72

Q: With N[C@H](CC1CCCCC1)C(O)C(=O)NCc1ccc(C(F)(F)F)cc1 (mixture of isomers) [Example 158, (2RS,3R)-3-amino-4-cyclohexyl-2-hydroxy-N-(4-(trifluoromethyl)benzyl)butanamide] as the molecule, how does the pIC50 read?
A: 5.55

Q: With N[C@H](CC1CCCCC1)C(O)C(=O)NCc1ccccc1Cl (mixture of isomers) [Example 159, (2RS,3R)-3-amino-N-(2-chlorobenzyl)-4-cyclohexyl-2-hydroxybutanamide] as the molecule, how does the pIC50 read?
A: 5.82

Q: With COc1ccc([N+](=O)[O-])cc1NC(=O)C(O)[C@H](N)CC1CCCCC1 (mixture of isomers) [Example 160, (2RS,3R)-3-amino-4-cyclohexyl-2-hydroxy-N-(2-methoxy-5-nitrophenyl)butanamide hydrochloride] as the molecule, how does the pIC50 read?
A: 6.05

Q: With COc1cc(NC(=O)C(O)[C@H](N)CC2CCCCC2)cc(OC)c1 (mixture of isomers) [Example 161, (2RS,3R)-3-amino-4-cyclohexyl-N-(3,5-dimethoxyphenyl)-2-hydroxybutanamide hydrochloride] as the molecule, how does the pIC50 read?
A: 6.21

Q: With N[C@H](CC1CCCCC1)C(O)C(=O)Nc1cccc(Oc2ccccc2)c1 (mixture of isomers) [Example 162, (2RS,3R)-3-amino-4-cyclohexyl-2-hydroxy-N-(3-phenoxyphenyl)butanamide hydrochloride] as the molecule, how does the pIC50 read?
A: 5.92

Q: How did the pIC50 turn out when N[C@H](CC1CCCCC1)C(O)C(=O)NCCc1cccc(F)c1 (mixture of isomers) [Example 166, (2RS,3R)-3-amino-4-cyclohexyl-N-(3-fluorophenethyl)-2-hydroxybutanamide hydrochloride] was run?
A: 6.23

Q: How did the pIC50 turn out when N[C@H](CC1CCCCC1)C(O)C(=O)NCCc1ccc(OCc2ccccc2)c(OCc2ccccc2)c1 (mixture of isomers) [Example 167, (2RS,3R)-3-amino-N-(3,4-bis(benzyloxy)phenethyl)-4-cyclohexyl-2-hydroxybutanamide hydrochloride] was run?
A: 5.48

Q: How did the pIC50 turn out when N[C@H](CC1CCCCC1)C(O)C(=O)NCCc1ccc(Oc2ccccc2)cc1 (mixture of isomers) [Example 168, (2RS,3R)-3-amino-4-cyclohexyl-2-hydroxy-N-(4-phenoxyphenethyl)butanamide hydrochloride] was run?
A: 5.82

Q: How did the pIC50 turn out when N[C@H](CC1CCCCC1)C(O)C(=O)Nc1cccc(OC(F)(F)F)c1 (mixture of isomers) [Example 170, (2RS,3R)-3-amino-4-cyclohexyl-2-hydroxy-N-(3-(trifluoromethoxy)phenyl)butanamide hydrochloride] was run?
A: 6.00

Q: How did the pIC50 turn out when Cc1ccccc1NC(=O)C(O)[C@H](N)CC1CCCCC1 (mixture of isomers) [Example 171, (2RS,3R)-3-amino-4-cyclohexyl-2-hydroxy-N-(2-methylphenyl)butanamide hydrochloride] was run?
A: 6.02

Q: With Cc1cccc(C)c1NC(=O)C(O)[C@H](N)CC1CCCCC1 (mixture of isomers) [Example 172, (2RS,3R)-3-amino-4-cyclohexyl-N-(2,6-dimethylphenyl)-2-hydroxybutanamide hydrochloride] as the molecule, how does the pIC50 read?
A: 5.30

Same assay, conditions: recombinant MetAP2 4 μg/mL, pH 7.4, Met-Ala-Ser substrate, 20 minutes

Q: How did the pIC50 turn out when N[C@H](CC1CCCCC1)C(O)C(=O)NC1CCCc2ccccc21 (mixture of isomers) [Example 110, (2RS,3R)-3-Amino-4-cyclohexyl-2-hydroxy-N-(1,2,3,4-tetrahydro-1-naphthalenyl)butanamide Hydrochloride] was run?
A: 6.00

Reference: patent US6242494A, “Substituted β-amino acid inhibitors of methionine aminopeptidase-2” (Abbott Laboratories, priority 1999, dated 2001)
